Data published in patent US20250290916A1 (Antibody Analytics Limited, priority 2022, published 2025).
“Also recorded” adds a separate entry of the source.

How the values were obtained:
HEK293 cells = assay: Cytotoxicity on HEK293 cells, eFluor780 fixable viability dye, flow cytometry; format: cell-based; conditions: increasing concentrations, 24 hours
Description: (§1) Before IAA was used as an expression inducer for the transduced cell lines, it was assessed for any cytotoxic effects on CHO-K1 and HEK293 cells. Cell viability in both HEK293 and CHO-K1 cells was measured by flow cytometry 24 hours post addition of IAA over the concentration range indicated.
(§2) HEK293 and CHO-K1 cells were treated with the indicated concentrations of IAA for 24 hours before being stained with eFluor780 fixable viability dye and analysed by flow cytometry.

CHO-K1 cells = assay: Cytotoxicity on CHO-K1 cells, eFluor780 fixable viability dye, flow cytometry; format: cell-based; conditions: increasing concentrations, 24 hours
Description: as §1, §2

CD4+ and CD8+ T cells = assay: Proliferation and IFNγ production of PBMC T cells stimulated with CD3/CD28 Dynabeads; format: cell-based, human; conditions: PBMCs from two donors, concentration series, 96 hrs; for IFNγ production: ELISA; for proliferation of CD4+ T cells / proliferation of CD8+ T cells: proliferation dye
Source text: One of the main considerations for application of the CIP system in immunology assays using primary human immune cells, is the effect that the small molecules (e,g. IAA) may have on cell viability and normal function. For example, one of the main limitations of one of the rapamycin-CIP systems is the high immunoregulatory effect of rapamycin on immune cells that limits its applicability in immunology assays. The inventors assessed the effect of IAA in the function of immune cells. PBMCs from two donors were stimulated with Human T-Activator CD3/CD28 targeting Dynabeads to stimulate T cell activation and proliferation, in the presence of a increasing concentration series of IAA. T cell proliferation and IFNγ production was analysed 96 hrs post stimulation to determine any negative effects on T cells. The concentration series of IAA was selected to reflect the concentration expected to be used in assays. […] Proliferation of CD4+ (A) and CD8+ (B) T cells was assessed by flow cytometry using a proliferation dye. The results are shown in FIG. 3, IFNγ production was assessed by ELISA (panel C), n=3, graphs report […]+SD.
For example one of the main limitation of one of the rapamycin-CIP system is the high immunoregulatory effect of rapamycin on immune cells that limits its applicability in immunology assays.
Peripheral Blood Mononuclear Cells (PBMCs) from two donors were labelled with eBioscience™ Cell Proliferation Dye eFluor™ 670 (ThermoFisher #65-0840-90). […] The cells were incubated for 96 hrs in a humidified incubator at 37° C./6% CO2 at which point proliferation of CD4+ and CD8+ T cells was assessed by flow cytometry. In parallel, supernatants were collected and the levels of IFNγ was analysed by ELISA (Human IFN-gamma DuoSet ELISA, R&D systems #DY285B).

IAA CIP system [1] = assay: EGFP reporter expression in HEK293 cells with IAA activator cassette and i-Scel EGFP reporter; format: cell-based; conditions: 24 hours
Source text: (§3) The levels of expression correlate with the number of i-Scel sites, with negligible induction observed at 1× i-Scel and the highest induction over background observed with the 10× i-Scel sites reporter. […] However, the inventors predict, that the inclusion of higher numbers of i-Scel binding sites in the reporter/TAOI cassette, would result in higher levels of induction of the reporter/TAOI.
(§4) Therefore, the 5× and 10× i-Scel binding site pools for HEK293 and CHO-K1 cells were single cell dilution cloned, and colonies picked from each cell pool and then analysed for induction of expression following IAA treatment. […] The HEK293 and CHO-K1 cells containing the IAA activator cassette and the 10× and 5× i-Scel reporter constructs were seeded overnight in 96 well plates. IAA was added at the indicated concentration and the cells were incubated for a further 24 hours. EGFP expression was detected by flow cytometry analysis.
(§5) The HEK293 and CHO-K1 cells containing the IAA activator cassette and the 10× i-Scel reporter construct were seeded overnight in 96 well plates. IAA was added at the indicated concentrations and the cells were incubated for a further 24 hours. EGFP expression was detected by flow cytometry analysis.
(§6) HEK293 and CHO-K1 cells containing the IAA activator cassette and the EGFP reporter constructs were seeded in 6 well plates. Following overnight incubation, the media was replaced with fresh media containing the indicated concentrations of IAA and the cells incubated for a further 24 hours. EGFP expression was detected using a NovoCyte flow cytometer (ACEA).

IAA CIP system [2] = assay: EGFP reporter expression in CHO-K1 cells with IAA activator cassette and i-Scel EGFP reporter; format: cell-based; conditions: 24 hours
Source text: as §3, §4, §5, §6

IAA CIP system [3] = assay: CD19 expression in CHO-K1 IAA activator 10× i-Scel CD19 reporter cells; format: cell-based
Source text: To test the system in a therapeutically relevant target, a construct expressing CD19 under the control of 10× i-Scel binding sites was introduced into the IAA activator cassette containing CHO-K1 cells and clones isolated. As the purpose of the system is to provide titratable expression of a given receptor (usually a tumour associated antigen) within a biologically relevant range, the CD19 expression was quantified using a Quantibrite bead fluorescence quantification kit which contains multiple bead populations each conjugated with set numbers of fluorophore molecules (PE in this case) per bead. Assuming the fluorophore conjugation to the detection antibody is at a 1:1 ratio (which was confirmed by the manufacture) and antibody binding to the receptor of interest (CD19) occurs at a 1:1 ratio, the number of CD19 receptors per cell can be calculated. By means of comparison, the CD19 expression level of the CD19 positive cells found in peripheral blood mononuclear cells (PBMCs), e.g. B cells, and Ramos cells were calculated in the same experiment.
(§7) Following this incubation, the cells were analysed for CD19 expression by flow cytometry.
CHO-K1 cells containing the IAA activator cassette and a 10× i-Scel CD19 reporter construct were seeded overnight in 96 well plates. […] CD19 expression was assess by flow cytometry and quantified for receptor number per cell. […]

ABA CIP system [4] = assay: tagBFP and CD19 reporter expression in CHO-K1 ABA activator cells; format: cell-based
Description: CD19 expression was detected by flow cytometry analysis and the number of CD19 receptors per cell was quantified using a Quantibrite PE bead fluorescence quantification kit (BD Biosciences). The CD19 receptors per cell for Ramos, Raji and B cells isolated from PBMCs are shown by way of comparison.
as §7
CD19 expression was detected by anti-CD19 staining (Biolegend #302254) and flow cytometry analysis. The number of CD19 receptors per cell was quantified using a Quantibrite PE bead fluorescence quantification kit (BD Biosciences #340495).

ABA CIP system [5] = assay: ABA-inducible CD22 expression in CHO-K1 cells containing both IAA and ABA CIP systems; format: cell-based; conditions: CHO-K1 IAA CD19 / ABA CD22 cells, IAA concentration series
Description: (§8) CD22 and CD19 expression was measured by flow cytometry and mean fluorescence intensity corresponding to CD22 and CD19 expression was plotted.

CD19 = target: T1, CD19 (Homo sapiens, UniProt P15391); assay: T cell engager assay, Jurkat NFAT luciferase reporter cells with CHO-K1 IAA or ABA activator CD19 reporter cells; format: cell-based
T1 construct: expressed in transfected cells
T1 sequence (P15391 20-556): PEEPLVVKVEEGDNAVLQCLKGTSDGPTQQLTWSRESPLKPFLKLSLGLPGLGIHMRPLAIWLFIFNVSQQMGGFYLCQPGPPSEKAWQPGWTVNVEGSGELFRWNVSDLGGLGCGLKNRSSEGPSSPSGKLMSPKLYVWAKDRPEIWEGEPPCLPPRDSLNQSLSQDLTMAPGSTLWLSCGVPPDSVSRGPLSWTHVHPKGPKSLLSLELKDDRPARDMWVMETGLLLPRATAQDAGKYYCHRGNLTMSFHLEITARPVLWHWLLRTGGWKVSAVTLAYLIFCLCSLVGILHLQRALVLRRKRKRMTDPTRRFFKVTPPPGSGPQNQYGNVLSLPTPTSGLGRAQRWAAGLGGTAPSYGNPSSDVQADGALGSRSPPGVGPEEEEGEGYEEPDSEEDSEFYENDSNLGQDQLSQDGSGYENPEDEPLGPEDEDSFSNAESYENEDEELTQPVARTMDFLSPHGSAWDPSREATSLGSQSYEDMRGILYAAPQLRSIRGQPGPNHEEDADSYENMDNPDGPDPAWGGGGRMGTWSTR
Description: This represents a typical assay set up for measuring the effect of a bispecific against cells expressing its target antigen.
NFAT activation was determined by luminescence after 24 hours (48 Hours from assay start) and plotted against CD19 expression quantified by staining with PE anti-CD19 and plotted on a curve generated using Quantibrite PE receptor quantification kit. n=3, graphs report mean±SD.

ABA CIP system [6] = assay: tagBFP and CD19 reporter expression in HEK293 ABA activator cells; format: cell-based; conditions: 1000 μM ABA, 24 hours
IAA CIP system [7] = assay: IAA-inducible CD19 expression in CHO-K1 cells containing both IAA and ABA CIP systems; format: cell-based; conditions: CHO-K1 IAA CD19 / ABA CD22 cells, ABA concentration series
Description: as §8

[8] = CHO-K1 ABA activator cells, 1000 μM ABA, 24 hours

**Q.** What does the source list for `O=C(O)Cc1c[nH]c2ccccc12` [IAA, indole-3-acetic acid]?
**A.** cell viability (percentage of cells which do not take up the dye) (HEK293 cells): no decrease in cell viability was observed; cell viability (percentage of cells which do not take up the dye) (CHO-K1 cells): no decrease in cell viability was observed; IFNγ production (CD4+ and CD8+ T cells): little or no effect; proliferation of CD4+ T cells (CD4+ and CD8+ T cells): little or no effect; proliferation of CD8+ T cells (CD4+ and CD8+ T cells): little or no effect; dose dependence of EGFP expression (IAA CIP system [1]; HEK293 10× i-Scel EGFP clone): dose-dependent induction of EGFP expression; induction of EGFP expression (IAA CIP system [1]; HEK293 stable pools, 1×, 5×, 10× i-Scel sites): induction of expression of EGFP can clearly be seen; additional induction of EGFP at 1000 μM compared to 500 μM (IAA CIP system [1]; HEK293 stable pools): no evidence of additional induction; dose dependence of EGFP expression (IAA CIP system [2]; CHO-K1 10× i-Scel EGFP clone): dose-dependent induction of EGFP expression; induction of EGFP expression (IAA CIP system [2]; CHO-K1 stable pools, 1×, 5×, 10× i-Scel sites): induction of expression of EGFP can clearly be seen; additional induction of EGFP at 1000 μM compared to 500 μM (IAA CIP system [2]; CHO-K1 stable pools): no evidence of additional induction; dose dependence of CD19 expression (receptors per cell) (IAA CIP system [3]; CHO-K1 IAA activator 10× i-Scel CD19 clone, IAA concentration range, 72 hours): a dose dependent range of CD19 expression has been achieved; CD19 expression from the ABA CIP system (cross-talk) (ABA CIP system [4]; CHO-K1 ABA activator CD19 reporter cells, 1000 μM IAA, 24 hours): does not induce expression; CD22 expression from the ABA system upon IAA (cross-talk in a single cell line) (ABA CIP system [5]): does not induce expression; also recorded: without IAA inducing ABA-activated CD22 expression

**Q.** Which results are given for “Blincyto: CD19×CD3 targeting bispecific T cell engager”?
**A.** NFAT luciferase signal against number of CD19 receptors (CD19; Blincyto 10 ng/mL and 25 ng/mL, luminescence after 24 hours): concurrent increase in luciferase signal; NFAT luciferase signal at the higher concentration compared to the lower (CD19; Blincyto 25 ng/mL versus 10 ng/mL): higher but remains IAA and ABA dose dependent

**Q.** Which results are given for S-(+)-abscisic acid [ABA]?
**A.** IFNγ production (CD4+ and CD8+ T cells): minimal effects; proliferation of CD4+ T cells (CD4+ and CD8+ T cells): minimal effects; proliferation of CD8+ T cells (CD4+ and CD8+ T cells): minimal effects; CD19 expression from the IAA system (cross-talk) (IAA CIP system [3]; CHO-K1 IAA activator CD19 reporter cells, 1000 μM ABA, 24 hours): does not induce expression; CD19 expression (ABA CIP system [6]): expression of both tagBFP and CD19 was obtained; tagBFP expression (ABA CIP system [6]): expression of both tagBFP and CD19 was obtained; dose dependence of CD19 expression (receptors per cell) (ABA CIP system [4]; CHO-K1 ABA activator 9×Gal4 UAS CD19 clone, ABA concentration range, 48 hours): dose dependent induction of CD19 expression; CD19 expression (ABA CIP system [4]; [8]): expression of both tagBFP and CD19 was obtained; tagBFP expression (ABA CIP system [4]; [8]): expression of both tagBFP and CD19 was obtained; CD19 expression from the IAA CIP system upon ABA (cross-talk in a single cell line) (IAA CIP system [7]): does not induce expression; also recorded: without ABA inducing IAA-activated CD 19 expression
